Laboratory results published in publication PMC6688997 (Nature Communications, 2019).

Key:
Type in all cases: biochemical
[1] = target: CK2α1/β (Homo sapiens, UniProt P68400); experiment: Kinase assay, 1 mM ATP
Outline: (§1)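 IC50 values come from four-parameter logistic regression of inhibition data obtained in an off-chip mobility shift kinase assay.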

[2] = target: T1, RET(Y791F) (Homo sapiens, UniProt P07949, Y791F); experiment: Kinase assay, 1 mM ATP
T1 construct: purchased Carna Biosciences
Outline: as §1

[3] = target: RSK3 (Homo sapiens, UniProt Q15349); experiment: Kinase assay, 1 mM ATP
Outline: as §1

[4] = target: IRAK4 (Homo sapiens, UniProt Q9NWZ3); experiment: Kinase assay, 1 mM ATP
Outline: as §1

[5] = target: T2, FRK (Homo sapiens, UniProt P42685); experiment: Kinase assay, 1 mM ATP
T2 construct: purchased Carna Biosciences
Outline: as §1

[6] = target: EPHA5 (Homo sapiens, UniProt P54756); experiment: Kinase assay, 1 mM ATP
Outline: as §1

[7] = target: ABL (Homo sapiens, UniProt P00519); experiment: Kinase assay, 1 mM ATP
Outline: as §1

[8] = target: AurA (Homo sapiens, UniProt O14965); experiment: Kinase assay, 1 mM ATP
AurA, sequence (O14965 whole entry): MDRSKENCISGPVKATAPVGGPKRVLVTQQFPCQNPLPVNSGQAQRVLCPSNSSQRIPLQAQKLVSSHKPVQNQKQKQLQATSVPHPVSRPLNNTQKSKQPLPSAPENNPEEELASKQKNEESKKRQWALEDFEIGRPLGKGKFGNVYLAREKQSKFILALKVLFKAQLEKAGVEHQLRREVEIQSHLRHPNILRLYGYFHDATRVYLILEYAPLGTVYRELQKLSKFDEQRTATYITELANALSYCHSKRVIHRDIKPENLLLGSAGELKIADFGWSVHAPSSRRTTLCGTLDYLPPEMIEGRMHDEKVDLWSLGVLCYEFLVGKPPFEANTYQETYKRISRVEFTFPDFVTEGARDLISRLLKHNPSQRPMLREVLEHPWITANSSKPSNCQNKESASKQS
Outline: as §1

[9] = target: T3, TIE2 (Homo sapiens, UniProt Q02763); experiment: Kinase assay, 1 mM ATP
T3 construct: purchased Carna Biosciences
Outline: as §1

[10] = target: T4, PDGFRα (Homo sapiens, UniProt P16234); experiment: Kinase assay, 1 mM ATP
T4 construct: purchased Carna Biosciences
Outline: as §1

[11] = target: CK1ε (Homo sapiens, UniProt P49674); experiment: Kinase assay, 1 mM ATP
Outline: as §1

[12] = target: T5, TNIK (Homo sapiens, UniProt Q9UKE5); experiment: Kinase assay, 1 mM ATP
T5 construct: purchased Carna Biosciences
Outline: as §1

[13] = target: GSK3α (Homo sapiens, UniProt P49840); experiment: Kinase assay, 1 mM ATP
Outline: as §1

[14] = target: T6, NEK1 (Homo sapiens, UniProt Q96PY6); experiment: Kinase assay, 1 mM ATP
T6 construct: purchased Carna Biosciences
Outline: as §1

[15] = target: CaMK1α (Homo sapiens, UniProt Q14012); experiment: Kinase assay, 1 mM ATP
Outline: as §1

[16] = target: SYK (Homo sapiens, UniProt P43405); experiment: Kinase assay, 1 mM ATP
Outline: as §1

[17] = target: TYK2 (Homo sapiens, UniProt P29597); experiment: Kinase assay, 1 mM ATP
Outline: as §1

[18] = target: PIM2 (Homo sapiens, UniProt Q9P1W9); experiment: Kinase assay, 1 mM ATP
Outline: as §1

[19] = target: EPHA2 (Homo sapiens, UniProt P29317); experiment: Kinase assay, 1 mM ATP
Outline: as §1

[20] = target: CHK1 (Homo sapiens, UniProt O14757); experiment: Kinase assay, 1 mM ATP
Outline: as §1

[21] = target: T7, FLT1 (Homo sapiens, UniProt P17948); experiment: Kinase assay, 1 mM ATP
T7 construct: purchased Carna Biosciences
Outline: as §1

[22] = target: T8, RET(M918T) (Homo sapiens, UniProt P07949, M918T); experiment: Kinase assay, 1 mM ATP
T8 construct: purchased Carna Biosciences
T8 sequence (P07949 29-1114 M918T): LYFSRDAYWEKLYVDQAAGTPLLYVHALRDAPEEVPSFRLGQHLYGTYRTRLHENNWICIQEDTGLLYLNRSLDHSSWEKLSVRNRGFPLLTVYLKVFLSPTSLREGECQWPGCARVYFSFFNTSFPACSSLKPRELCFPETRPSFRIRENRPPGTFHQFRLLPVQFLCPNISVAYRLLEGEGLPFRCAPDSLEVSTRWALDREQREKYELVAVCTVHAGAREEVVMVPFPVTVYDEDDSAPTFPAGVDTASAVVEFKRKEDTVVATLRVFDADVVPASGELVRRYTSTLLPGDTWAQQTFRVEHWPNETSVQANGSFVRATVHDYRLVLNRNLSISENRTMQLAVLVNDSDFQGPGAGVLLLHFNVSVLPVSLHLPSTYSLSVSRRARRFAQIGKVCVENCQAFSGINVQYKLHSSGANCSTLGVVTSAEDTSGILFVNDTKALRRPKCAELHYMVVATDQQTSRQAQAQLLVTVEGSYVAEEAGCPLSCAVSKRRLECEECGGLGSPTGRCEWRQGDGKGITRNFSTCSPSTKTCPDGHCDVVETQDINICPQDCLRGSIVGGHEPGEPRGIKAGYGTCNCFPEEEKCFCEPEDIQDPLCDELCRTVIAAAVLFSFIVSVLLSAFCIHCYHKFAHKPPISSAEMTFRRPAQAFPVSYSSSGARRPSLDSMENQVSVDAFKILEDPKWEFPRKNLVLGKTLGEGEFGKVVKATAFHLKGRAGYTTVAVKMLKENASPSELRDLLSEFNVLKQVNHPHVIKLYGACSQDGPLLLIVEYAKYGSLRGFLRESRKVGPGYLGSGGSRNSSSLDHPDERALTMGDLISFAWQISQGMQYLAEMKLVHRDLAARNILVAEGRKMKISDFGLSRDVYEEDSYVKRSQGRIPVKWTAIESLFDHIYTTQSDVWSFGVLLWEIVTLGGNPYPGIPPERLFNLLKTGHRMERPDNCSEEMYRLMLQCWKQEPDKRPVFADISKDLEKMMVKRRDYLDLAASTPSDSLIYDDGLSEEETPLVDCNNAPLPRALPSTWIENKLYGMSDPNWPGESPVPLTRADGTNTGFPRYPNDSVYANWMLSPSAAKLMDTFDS
Outline: as §1

[23] = target: T9, SIK (Homo sapiens, UniProt P57059); experiment: Kinase assay, 1 mM ATP
T9 construct: purchased Carna Biosciences
Outline: as §1

[24] = target: T10, MINK (Homo sapiens, UniProt Q8N4C8); experiment: Kinase assay, 1 mM ATP
T10 construct: purchased Carna Biosciences
Outline: as §1

[25] = target: T11, IRR (Homo sapiens, UniProt P14616); experiment: Kinase assay, 1 mM ATP
T11 construct: purchased Carna Biosciences
Outline: as §1

[26] = target: JNK1 (Homo sapiens, UniProt P45983); experiment: Kinase assay, 1 mM ATP
Outline: as §1

[27] = target: T12, RET (Homo sapiens, UniProt P07949); experiment: Kinase assay, 1 mM ATP
T12 construct: purchased Carna Biosciences
T12 sequence (P07949 29-1114): as the sequence (P07949 29-1114 M918T) above, with T890M counted along it
Outline: as §1

[28] = target: T13, NEK6 (Homo sapiens, UniProt Q9HC98); experiment: Kinase assay, 1 mM ATP
T13 construct: purchased Carna Biosciences
Outline: as §1

[29] = target: FGFR2 (Homo sapiens, UniProt P21802); experiment: Kinase assay, 1 mM ATP
FGFR2, sequence (P21802 22-821): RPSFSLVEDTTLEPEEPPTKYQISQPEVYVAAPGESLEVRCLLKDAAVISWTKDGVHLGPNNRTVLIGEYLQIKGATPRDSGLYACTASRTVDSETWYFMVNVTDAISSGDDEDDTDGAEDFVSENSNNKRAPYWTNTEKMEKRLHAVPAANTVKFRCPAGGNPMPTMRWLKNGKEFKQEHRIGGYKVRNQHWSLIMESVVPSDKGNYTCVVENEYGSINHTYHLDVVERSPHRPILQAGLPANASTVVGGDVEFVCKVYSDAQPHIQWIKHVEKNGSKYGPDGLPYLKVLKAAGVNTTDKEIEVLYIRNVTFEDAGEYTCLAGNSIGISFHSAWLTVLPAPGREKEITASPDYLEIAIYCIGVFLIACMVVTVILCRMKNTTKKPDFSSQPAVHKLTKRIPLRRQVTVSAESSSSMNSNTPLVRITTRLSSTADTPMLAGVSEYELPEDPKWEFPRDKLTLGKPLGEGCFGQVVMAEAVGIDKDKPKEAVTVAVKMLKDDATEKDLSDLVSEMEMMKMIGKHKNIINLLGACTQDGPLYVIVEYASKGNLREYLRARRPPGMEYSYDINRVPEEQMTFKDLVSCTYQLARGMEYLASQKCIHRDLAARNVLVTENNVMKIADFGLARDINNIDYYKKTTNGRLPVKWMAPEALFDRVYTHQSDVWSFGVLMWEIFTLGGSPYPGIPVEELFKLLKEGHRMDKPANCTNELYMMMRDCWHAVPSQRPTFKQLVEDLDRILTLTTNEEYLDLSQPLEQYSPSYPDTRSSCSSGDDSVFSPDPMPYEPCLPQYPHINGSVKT
Outline: as §1

[30] = target: T14, IGF1R (Homo sapiens, UniProt P08069); experiment: Kinase assay, 1 mM ATP
T14 construct: purchased Carna Biosciences
Outline: as §1

[31] = target: PIM1 (Homo sapiens, UniProt P11309); experiment: Kinase assay, 1 mM ATP
Outline: as §1

[32] = target: HCK (Homo sapiens, UniProt P08631); experiment: Kinase assay, 1 mM ATP
Outline: as §1

[33] = target: Erk1 (Homo sapiens, UniProt P27361); experiment: Kinase assay, 1 mM ATP
Outline: as §1

[34] = target: CDK9/CycT1 (Homo sapiens, UniProt P50750); experiment: Kinase assay, 1 mM ATP
CDK9/CycT1, sequence (P50750 whole entry): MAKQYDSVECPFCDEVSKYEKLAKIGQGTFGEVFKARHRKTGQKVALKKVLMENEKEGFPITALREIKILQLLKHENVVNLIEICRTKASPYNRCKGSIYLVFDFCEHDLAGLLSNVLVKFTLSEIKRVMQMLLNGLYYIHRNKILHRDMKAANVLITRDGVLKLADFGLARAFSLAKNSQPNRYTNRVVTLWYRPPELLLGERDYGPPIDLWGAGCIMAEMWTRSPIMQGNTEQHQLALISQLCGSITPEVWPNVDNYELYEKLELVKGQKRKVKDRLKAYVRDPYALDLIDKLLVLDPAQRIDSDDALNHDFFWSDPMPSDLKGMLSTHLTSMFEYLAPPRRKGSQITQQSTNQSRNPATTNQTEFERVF
CDK9/CycT1, sequence (O60563 whole entry partner): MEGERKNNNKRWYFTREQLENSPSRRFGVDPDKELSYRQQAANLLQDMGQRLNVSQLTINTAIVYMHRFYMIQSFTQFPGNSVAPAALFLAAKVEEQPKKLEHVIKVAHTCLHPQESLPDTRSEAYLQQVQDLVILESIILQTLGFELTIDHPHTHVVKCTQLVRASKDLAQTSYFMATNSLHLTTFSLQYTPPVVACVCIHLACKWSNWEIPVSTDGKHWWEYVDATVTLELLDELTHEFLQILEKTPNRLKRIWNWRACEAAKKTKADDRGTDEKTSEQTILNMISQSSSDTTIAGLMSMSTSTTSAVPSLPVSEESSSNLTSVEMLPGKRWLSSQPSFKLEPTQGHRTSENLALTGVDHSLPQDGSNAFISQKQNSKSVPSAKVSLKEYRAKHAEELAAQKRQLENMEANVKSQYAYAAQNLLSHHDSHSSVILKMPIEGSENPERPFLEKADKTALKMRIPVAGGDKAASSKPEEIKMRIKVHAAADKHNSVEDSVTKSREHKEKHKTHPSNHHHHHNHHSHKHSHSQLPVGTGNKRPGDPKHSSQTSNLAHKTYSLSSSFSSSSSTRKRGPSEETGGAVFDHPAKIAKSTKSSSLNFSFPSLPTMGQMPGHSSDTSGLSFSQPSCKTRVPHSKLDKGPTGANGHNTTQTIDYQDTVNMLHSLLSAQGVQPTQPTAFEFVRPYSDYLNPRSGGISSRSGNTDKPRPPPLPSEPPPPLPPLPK
Outline: as §1

[35] = target: EPHA7 (Homo sapiens, UniProt Q15375); experiment: Kinase assay, 1 mM ATP
Outline: as §1

[36] = target: EPHA6 (Homo sapiens, UniProt Q9UF33); experiment: Kinase assay, 1 mM ATP
Outline: as §1

[37] = target: T15, PKD2 (Homo sapiens, UniProt Q9BZL6); experiment: Kinase assay, 1 mM ATP
T15 construct: purchased Carna Biosciences
Outline: as §1

[38] = target: T16, JAK3 (Homo sapiens, UniProt P52333); experiment: Kinase assay, 1 mM ATP
T16 construct: purchased Carna Biosciences
Outline: as §1

[39] = target: EPHA3 (Homo sapiens, UniProt P29320); experiment: Kinase assay, 1 mM ATP
Outline: as §1

[40] = target: T17, KDR (Homo sapiens, UniProt P35968); experiment: Kinase assay, 1 mM ATP
T17 construct: purchased Carna Biosciences
T17 sequence (P35968 20-1356): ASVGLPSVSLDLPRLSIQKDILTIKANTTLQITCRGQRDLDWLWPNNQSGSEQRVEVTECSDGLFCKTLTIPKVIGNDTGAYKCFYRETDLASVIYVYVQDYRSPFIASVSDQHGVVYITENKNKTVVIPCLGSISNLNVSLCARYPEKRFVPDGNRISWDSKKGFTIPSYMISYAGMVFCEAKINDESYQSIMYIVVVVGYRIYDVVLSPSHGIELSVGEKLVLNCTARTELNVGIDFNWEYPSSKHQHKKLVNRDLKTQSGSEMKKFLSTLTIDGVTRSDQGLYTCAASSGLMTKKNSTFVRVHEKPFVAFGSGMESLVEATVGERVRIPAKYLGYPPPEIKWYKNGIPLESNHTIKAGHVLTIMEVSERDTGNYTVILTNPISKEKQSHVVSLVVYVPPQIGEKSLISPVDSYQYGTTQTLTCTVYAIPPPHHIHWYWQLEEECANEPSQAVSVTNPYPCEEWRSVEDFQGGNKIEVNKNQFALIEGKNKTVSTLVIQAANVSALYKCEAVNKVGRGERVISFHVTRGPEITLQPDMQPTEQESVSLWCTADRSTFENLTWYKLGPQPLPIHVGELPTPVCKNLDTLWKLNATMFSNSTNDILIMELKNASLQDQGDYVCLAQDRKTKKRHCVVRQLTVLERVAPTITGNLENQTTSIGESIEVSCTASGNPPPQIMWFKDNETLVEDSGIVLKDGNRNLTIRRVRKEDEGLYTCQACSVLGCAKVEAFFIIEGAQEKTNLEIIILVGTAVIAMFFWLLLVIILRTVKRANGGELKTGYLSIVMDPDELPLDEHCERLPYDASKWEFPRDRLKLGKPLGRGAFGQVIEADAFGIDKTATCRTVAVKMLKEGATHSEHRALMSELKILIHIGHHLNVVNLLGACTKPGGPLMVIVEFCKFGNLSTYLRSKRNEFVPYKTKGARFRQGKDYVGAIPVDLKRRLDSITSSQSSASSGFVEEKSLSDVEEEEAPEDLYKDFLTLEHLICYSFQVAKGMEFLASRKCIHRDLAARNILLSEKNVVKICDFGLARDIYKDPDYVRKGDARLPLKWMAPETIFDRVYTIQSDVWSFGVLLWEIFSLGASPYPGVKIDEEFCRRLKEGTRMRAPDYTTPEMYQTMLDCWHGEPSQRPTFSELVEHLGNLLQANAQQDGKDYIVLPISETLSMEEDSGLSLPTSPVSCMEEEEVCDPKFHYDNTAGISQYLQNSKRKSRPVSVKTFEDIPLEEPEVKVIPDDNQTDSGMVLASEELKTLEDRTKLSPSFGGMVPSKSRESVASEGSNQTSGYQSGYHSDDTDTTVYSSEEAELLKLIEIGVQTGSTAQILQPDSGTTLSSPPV
Outline: as §1

[41] = target: NEK7 (Homo sapiens, UniProt Q8TDX7); experiment: Kinase assay, 1 mM ATP
NEK7, sequence (Q8TDX7 whole entry): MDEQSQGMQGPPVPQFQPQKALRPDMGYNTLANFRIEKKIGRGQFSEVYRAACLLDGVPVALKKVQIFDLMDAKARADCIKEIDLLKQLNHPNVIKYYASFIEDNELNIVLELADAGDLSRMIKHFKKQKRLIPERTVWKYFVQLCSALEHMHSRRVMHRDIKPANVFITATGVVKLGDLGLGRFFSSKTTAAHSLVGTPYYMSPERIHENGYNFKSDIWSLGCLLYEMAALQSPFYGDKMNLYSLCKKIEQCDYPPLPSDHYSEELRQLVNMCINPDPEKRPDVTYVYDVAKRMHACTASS
Outline: as §1

[42] = target: CaMK4 (Homo sapiens, UniProt Q16566); experiment: Kinase assay, 1 mM ATP
Outline: as §1

[43] = target: T18, LATS2 (Homo sapiens, UniProt Q9NRM7); experiment: Kinase assay, ATP Km
T18 construct: purchased Carna Biosciences

Question: For `C[C@@H](N)COc1ccc(-c2cnc3ccc(N[C@H](C)c4cccc(F)c4)nn23)cc1.O=C(O)CCCCC(=O)O` [DS-6051b], which inhibition at 0.2 µM [1] is on record?
Answer: The inhibition at 0.2 µM was -12.2%.

Question: And the inhibition at 0.2 µM [2]?
Answer: The inhibition at 0.2 µM was -4.3%.

Question: What about the inhibition at 0.2 µM [3] of the same compound?
Answer: Its inhibition at 0.2 µM is -3.2%.

Question: What about the inhibition at 0.2 µM [4] of the same compound?
Answer: The inhibition at 0.2 µM was -0.4%.

Question: And the inhibition at 0.2 µM [5]?
Answer: Its inhibition at 0.2 µM is 8.1%.

Question: What about the inhibition at 0.2 µM [6] of the same compound?
Answer: Its inhibition at 0.2 µM is -9%.

Question: What about the inhibition at 0.2 µM [7] of the same compound?
Answer: Its inhibition at 0.2 µM is -1.1%.

Question: And the inhibition at 0.2 µM [8]?
Answer: Its inhibition at 0.2 µM is -15.7%.

Question: What about the inhibition at 0.2 µM [9] of the same compound?
Answer: The inhibition at 0.2 µM was -2.2%.

Question: And the inhibition at 0.2 µM [10]?
Answer: The inhibition at 0.2 µM was 5.7%.

Question: What about the inhibition at 0.2 µM [11] of the same compound?
Answer: The inhibition at 0.2 µM was -8.9%.

Question: What about the inhibition at 0.2 µM [12] of the same compound?
Answer: Its inhibition at 0.2 µM is -3%.

Question: And the inhibition at 0.2 µM [13]?
Answer: Its inhibition at 0.2 µM is -3.4%.

Question: And the inhibition at 0.2 µM [14]?
Answer: The inhibition at 0.2 µM was -5.2%.

Question: And the inhibition at 0.2 µM [15]?
Answer: The inhibition at 0.2 µM was -8.6%.

Question: And the inhibition at 0.2 µM [16]?
Answer: Its inhibition at 0.2 µM is -2.5%.

Question: And the inhibition at 0.2 µM [17]?
Answer: The inhibition at 0.2 µM was 8.3%.

Question: What about the inhibition at 0.2 µM [18] of the same compound?
Answer: Its inhibition at 0.2 µM is -14%.

Question: What about the inhibition at 0.2 µM [19] of the same compound?
Answer: The inhibition at 0.2 µM was -2.2%.

Question: What about the inhibition at 0.2 µM [20] of the same compound?
Answer: The inhibition at 0.2 µM was -1.2%.

Question: And the inhibition at 0.2 µM [21]?
Answer: Its inhibition at 0.2 µM is -3.1%.

Question: What about the inhibition at 0.2 µM [22] of the same compound?
Answer: The inhibition at 0.2 µM was 0.9%.

Question: And the inhibition at 0.2 µM [23]?
Answer: The inhibition at 0.2 µM was 8.9%.

Question: And the inhibition at 0.2 µM [24]?
Answer: Its inhibition at 0.2 µM is -2.2%.

Question: And the inhibition at 0.2 µM [25]?
Answer: Its inhibition at 0.2 µM is 16.8%.

Question: And the inhibition at 0.2 µM [26]?
Answer: The inhibition at 0.2 µM was -3.3%.

Question: What about the inhibition at 0.2 µM [27] of the same compound?
Answer: The inhibition at 0.2 µM was 0.6%.

Question: What about the inhibition at 0.2 µM [28] of the same compound?
Answer: Its inhibition at 0.2 µM is -0.6%.

Question: What about the inhibition at 0.2 µM [29] of the same compound?
Answer: Its inhibition at 0.2 µM is 4.8%.

Question: And the inhibition at 0.2 µM [30]?
Answer: Its inhibition at 0.2 µM is 3.4%.

Question: And the inhibition at 0.2 µM [31]?
Answer: The inhibition at 0.2 µM was -3.6%.

Question: What about the inhibition at 0.2 µM [32] of the same compound?
Answer: Its inhibition at 0.2 µM is -6%.

Question: And the inhibition at 0.2 µM [33]?
Answer: Its inhibition at 0.2 µM is -4.9%.

Question: What about the inhibition at 0.2 µM [34] of the same compound?
Answer: Its inhibition at 0.2 µM is -2.9%.

Question: What about the inhibition at 0.2 µM [35] of the same compound?
Answer: The inhibition at 0.2 µM was -4.9%.

Question: And the inhibition at 0.2 µM [36]?
Answer: Its inhibition at 0.2 µM is -5.7%.

Question: What about the inhibition at 0.2 µM [37] of the same compound?
Answer: The inhibition at 0.2 µM was -17.3%.

Question: What about the inhibition at 0.2 µM [38] of the same compound?
Answer: The inhibition at 0.2 µM was 0.0922%.

Question: What about the inhibition at 0.2 µM [39] of the same compound?
Answer: The inhibition at 0.2 µM was 2.8%.

Question: What about the inhibition at 0.2 µM [40] of the same compound?
Answer: Its inhibition at 0.2 µM is -5.4%.

Question: And the inhibition at 0.2 µM [41]?
Answer: Its inhibition at 0.2 µM is -2%.

Question: What about the inhibition at 0.2 µM [42] of the same compound?
Answer: The inhibition at 0.2 µM was -3.3%.

Question: What about the inhibition at 0.04 µM [43] of the same compound?
Answer: The inhibition at 0.04 µM was 6.6%.
